From patent US8541455B2, “Derivatives of 2-pyridin-2-yl-pyrazol-3(2H)-one, preparation and therapeutic use thereof as HIF activators” (Sanofi, priority 2008, dated 2013)

Legend:
[1] = system: EPO secretion by Hep3B cells; experiment: Measurement of the secretion of EPO by Hep3B hepatocytes (ELISA on supernatant); assay type: cell-based; conditions: Homo sapiens, 18 hours incubation under normoxia, EPO in supernatant, 50% of the maximum response of this same compound
Source text: (§1) 2. Measurement of the Secretion of VEGF and EPO by Hep3B Hepatocytes 2.1. Object
(§2) HIF is a transcription factor involved in the adaptation of cells to hypoxia. Since the genes activated by HIF are involved in the adaptive response of cells to hypoxia and of tissues to ischaemia, the object is to identify and characterize compounds that stabilize HIF1-alpha in cells in order to amplify or mimic its beneficial effect. HIF1-alpha was identified following the analysis of the EPO gene promoter, which makes this protein one of the first markers of HIF1-alpha activation. Moreover, VEGF is also identified in the literature as one of the main markers of HIF activation. It is for this reason that measurement of these two proteins was selected for characterizing compounds that are HIF activators in Hep3B cells.
(§3) The object was thus to develop a sensitive screening test, adaptable to 96-well plates, for directly measuring the amount of VEGF and EPO in the supernatant of the Hep3B cells (cells derived from a human hepatocarcinoma) in response to the potential HIF activators.
(§4) The test is an ELISA test for measuring VEGF and EPO in the supernatant of Hep3B cells treated under hypoxia or with deferoxamine as controls or with the potential HIF activators. The test was adapted to a 96-well plate, allowing greater compound screening capacity.
(§5) • 2.3.1 Experiment Plan • 1) Inoculation of the cells on D0 • 2) Adherence for 6 hours under normoxia • 3) Preparation and addition of the products (Biomek 2000 and FX) • 4) Incubation under normoxia for 18 hours • 5) EPO and VEGF assay in the supernatant on D+1 • 2.3.2 Inoculation of the Cells
(§6) The cells are subcultured into 100 μl of culture medium (10% FCS) in black, opaque-bottomed 96-well plates (reference Costar 3916) at 30 000 cells/well, with Multidrop. • 2.3.3 Treatment of the Cells
(§7) The test products are prepared at 10^−2 M in 100% DMSO and then diluted to […] in medium containing 0.1% FCS (6 μl in 194 μl of MEM). 200 μl of each compound are deposited in column 12 of a 96-well plate. Dilution ranges from […] to 3×10^−8M are prepared with Biomek 2000 (programme: range of 9 points in series). 100 μl of MEM 0.1% FCS and Deferoxamine 5×10^−3M are added as controls to column 3 and, respectively, to wells A,B,C,D and wells E,F,G,H • DL Plate Distribution in Cell Plates
(§8) The medium of the cells inoculated the day before into 96-well plates is changed for 90 μl of medium containing 0.1% FCS and 10 μl are distributed with FX 96 from the 96-well DL plates to the cell plates.
(§9) The cell plates thus treated are placed for 18 hours in an incubator at 37° C. (ambient O2, 6% CO2).
(§10) The supernatants (80 μl) of the Hep3B cells in the 96-well plates treated with the potential HIF activators are recovered with a multichannel pipette for simultaneous assay of the VEGF and the EPO by ELISA according to the supplier's instructions (Kit EPO Mesoscale (ref K15122B-2)).
(§11) The activating activity of a compound with respect to HIF is given by the concentration that produces 50% of the maximum response of this same compound in Table IV below.

[2] = system: VEGF secretion by Hep3B cells; experiment: Measurement of the secretion of VEGF by Hep3B hepatocytes (ELISA on supernatant); assay type: cell-based; conditions: Homo sapiens, 18 hours incubation under normoxia, VEGF in supernatant, 50% of the maximum response of this same compound
Source text: as §1, §2, §3, §4, §5, §6, §7, §8, §9, §10, §11

[3] = system: HIF1-alpha; experiment: Measurement of the stabilization of HIF1-alpha in HEKEA cells (beta-galactosidase complementation, luminescence); assay type: cell-based, human; conditions: HEKEA_HIF1-alphaPLBL cells, 6 hours incubation under normoxia; concentration that produces 50% of the maximum response of this same compound
Source text: Furthermore, a subject of the invention is also a uniform test process for the direct measurement by beta-galactosidase complementation of the amount of HIF1-alpha protein in the nucleus of cells, preferably HEK cells, after treating the said cells with one or more test compounds, which consists in: • (a) inoculating, preferably in 384-well plates, the said cells in a suitable culture medium, preferably 1% foetal calf serum (abbreviated as FCS); • (b) adding the test compound(s) at a suitable concentration in a suitable solvent to the cells previously inoculated in the said culture medium; preferably the test compounds are diluted in 0.1% FCS; • (c) incubating the said cells thus prepared in an indicator at about 37° C., advantageously for about 6 hours; • (d) lysing the cells with a lysis buffer containing a chemiluminescent substrate for beta-galactosidase; • (e) incubating in the absence of light, before reading and measuring the luminescence, which is a function of the beta-galactosidase activity.
Many tests exist describing the indirect measurement of the activity of HIF via reporter gene systems (HRE-luciferase) or via the measurement of HIF-induced proteins (for example VEGF or EPO). Furthermore, the only tests that allow direct measurement of the amount of HIF1-alpha protein in cells are tests using antibodies, for instance Western blotting comprising phases of cell extraction (total lysates or nuclear extracts) that are consuming in terms of cells and time, thus limiting the compound screening capacity. The object was thus to develop a sensitive screening test, adaptable to 384-well plates, for directly measuring the amount of HIF1-alpha protein in the nucleus of cells. This test was established in HEK cells ([…]).
The test is a cell test based on the principle of enzyme complementation, the enzyme used herein being beta-galactosidase. HEKEA cells are HEK cells stably expressing, and restricted in their nucleus, mutant beta-galactosidase (omega fragment, also known as EA) (line sold by DiscoverX). This construct makes it possible to obtain beta-galactosidase activity only when the protein comprising the Prolabel complementation fragment has migrated into the nucleus.
The protein of interest comprising the Prolabel fragment is in this case an HIF1-alpha or HIF1-alpha mutated at the two prolines 402 and 564 replaced with alanines, is C-terminal fused via molecular biology (DiscoverX vector sold by Clontech) with the small complementation peptide fragment (Prolabel or ED, about 4 kDa). The vector coding for the chimeric protein HIF1-alpha_Prolabel is then transfected into HEKEA cells to obtain stable clones (HEKEA_HIF1-alphaPLBL).
The amount of C-terminal Prolabel-“labelled” HIF1-alpha protein obtained after treating the cells to hypoxia or compounds that are potentially HIF activators is measured by adding to the cells a lysis buffer containing a chemiluminescent substrate for beta-galactosidase.
The measurement of the beta-galactosidase activity will be proportional to the amount of Prolabel and thus of HIF1-alpha that has migrated into the nucleus of the cells.
• 1.3.1 Experiment Plan • 1) Inoculation of the cells on D0 • 2) Adherence for 24 hours under normoxia • 3) Preparation and addition of the products (Biomek 2000 and FX) on D+1 • 4) Incubation under normoxia for 6 hours • 5) Reading of the plates (by luminescence)
The cells are inoculated with Multidrop in white, opaque-bottomed 384-well plates (Greiner ref 3704), in 30 μl of culture medium (1% FCS) at 10 000 cells/well (cell plate). • 1.3.3 Treatment • Preparation of the Dilution Plate (DL Plate)
The test products are prepared at 3×10^−2 M in 100% DMSO and then diluted to 3×10^−4 M in medium containing 0.1% FCS (10 μl in 990 μl of MEM). They are then deposited by hand into column 12 of a round-bottomed 96-well plate (200 μl of each compound) known as the dilution plate (dl). […]

SMILES	EC50 [3]	melting point	EC50 [1]	EC50 [2]
CCN(c1ccccc1)S(=O)(=O)c1ccc(-n2[nH]c(C)c(C3(c4ccccc4)CC3)c2=O)nc1 [Compound 80, N-ethyl-6-[3-methyl-5-oxo-4-(1-phenylcyclopropyl)-2,5-dihydro-1H-pyrazol-1-yl]-N-phenylpyridine-3-sulfonamide]	3300 nM	146 °C	400 nM	900 nM
CCN(c1ccccc1)S(=O)(=O)c1ccc(-n2[nH]c(C)c(Cc3ncccc3OC)c2=O)nc1 [Compound 81]	7500 nM	130 °C	1200 nM	1900 nM
CCN(c1ccccc1)S(=O)(=O)c1ccc(-n2[nH]c(COC)c(Cc3ccccc3)c2=O)nc1 [Compound 82]	1500 nM	158 °C	1000 nM	1200 nM

Continued, in another order:

EC50 [3]	melting point	SMILES	EC50 [1]	EC50 [2]
3300 nM	186 °C	CCN(c1ccccc1)S(=O)(=O)c1ccc(-n2[nH]c(C(F)(F)F)c(Cc3ccccc3)c2=O)nc1 [Compound 83, 6-(4-benzyl-5-oxo-3-trifluoromethyl-2,5-dihydro-1H-pyrazol-1-yl)-N-ethyl-N-phenylpyridine-3-sulfonamide]	1400 nM	1300 nM
1800 nM	188 °C	CCN(c1ccccc1)S(=O)(=O)c1ccc(-n2[nH]c(C)c(CCc3ccccn3)c2=O)nc1 [Compound 85]	2500 nM	2500 nM
880 nM	138 °C	CCN(c1ccccc1)S(=O)(=O)c1ccc(-n2[nH]c(CC(C)C)c(Cc3ccccc3)c2=O)nc1 [Compound 88]	300 nM	400 nM
860 nM	158 °C	CCN(c1ccccc1)S(=O)(=O)c1ccc(-n2[nH]c(C)c(CCCc3ccccc3)c2=O)nc1 [Compound 92]	500 nM	500 nM
